# Reference: US8927504B2, “Combined use of dipeptidyl peptidase 4 inhibitor and sweetener” (Mitsubishi Tanabe Pharma Corporation, priority 2007, dated 2015)
# Experiments:
# [1] = Body weight-reducing test using DIO (diet-induced obesity) mice (1), Example 3; format: in vivo, mouse; details: Compound A alone 10 mg/100 g in-feed; high fat diet-fed C57BL/6J mice
# Experimental: High fat diet-fed, male C57BL/6J mice (Clea Japan, Inc.) were used in the test.
# Fed a high fat diet was carried out by allowing 3-week-old, male C57BL/6J mice (Clea Japan, Inc.) to free access to a high-fat diet having 37.2 w/w % fat content and 5.578 kcal/g calorie level (available from Oriental Yeast Co., Ltd.) for feed. Normal diet control mice were allowed free access to CRF-1 (fat content: 5.7 w/w %, calorie level: 3.59 kcal/g, available from Oriental Yeast Co., Ltd.).
# The mice were used in the test after housing to age 39 weeks while fed a high fat diet in this manner.
# These study animals were used in the test after first grouping according to body weight and blood sugar level.
# The animals were administered test DPP4 inhibitor and test sweetener either orally or in-feed. […]
# Body weight and food intake were measured over time after the start of administration of the test substances.
# Moreover, in the case body weight-reducing effect was observed, body composition was measured using a laboratory mouse X-ray body fat percentage measuring device (PIXImus2, GE Medical Systems Inc.) under pentobarbital anesthesia (70 mg/kg, i.p.). […]
# [2] = tested on: active GLP-1 in plasma; experiment: GLP-1 secretion-stimulating action by combined use of DPP4 inhibitor and sweetener (1), Example 2; format: in vivo, mouse; details: C57BL/6J mice
# Experimental: Male SD(CD)/Crj rats (Charles River Laboratories Japan, Inc.) (6-week-old at time of use) or male C57BL/6J mice (Clea Japan, Inc.) (9-week-old at time of use) were used in the test.
# These study animals were used in the test after first grouping according to body weight. The animals were orally administered (10 mL/kg) a test DPP4 inhibitor (or purified water as a control). At 30 minutes after administration, the animals were then orally administered (10 mL/kg) a solution of a test sweetener (or purified water as a control) followed by collecting blood samples at 0, 30, 60, 180 and 300 minutes after administration. These samples were then measured for concentrations of active GLP-1 in plasma.
# Measurement of plasma active GLP-1 concentrations was carried out in the same manner as (1) of Example 1 above.
# The measurement results were tested for the presence of a significant difference between groups by comparing the sweetener-loaded groups with the control group using Dunnett's multiple comparison test (two-sided test). Here, a P value less than 5% was considered statistically significant, and statistical analysis software (EXSAS: Biological Experimental Data Statistical Analysis System, Arm Systex Co., Ltd.) was used to analyze the data.
# C57BL/6J mice were used for the study animals. […]
# [3] = tested on: GLP-1; details: Shima et al., Acta Endocrinologica 1990; cited from earlier work
# [4] = administration to mice; JP H6-65080; cited from earlier work
# [5] = tested on: active GLP-1 in plasma; experiment: GLP-1 secretion-stimulating action by combined use of DPP4 inhibitor and sweetener (2), Example 4; format: in vivo, mouse; details: 1 hour after dosing, relative to 100 for Compound A′ and fructooligosaccharide 6 g/kg, C57BL/6J mice
# Experimental: Male C57BL/6J mice (Clea Japan, Inc.) (7-week-old at time of use) were used in the test.
# These study animals were used in the test after first fasting starting on the night prior to the test and then grouping according to body weight. The animals were orally administered test DPP4 inhibitor (or purified water as a control) (10 mL/kg). At 30 minutes after administration, the animals were then orally administered (10 mL/kg) a solution of test sweetener (or purified water as a control) followed by collecting blood samples at 0, 30, 60, 180 and 300 minutes after administration. These samples were then measured for concentrations of active GLP-1 in plasma.
# Measurement of plasma active GLP-1 concentrations and analysis and testing of the measurement results were carried out in the same manner as (1) of Example 1 above.
# Fructooligosaccharide (Meiji Seika Kaisha Ltd.), kestose (Meiji Seika Kaisha Ltd., GF2), raffinose (Wako Pure Chemical Industries, Ltd.), melibiose (Wako Pure Chemical Industries, Ltd.), xylooligosaccharide (Suntory Ltd.), xylose (Wako Pure Chemical Industries, Ltd.), xylitol (Wako Pure Chemical Industries, Ltd.), sorbitol (Wako Pure Chemical Industries, Ltd.), D-mannitol (Wako Pure Chemical Industries, Ltd.), erythritol (Wako Pure Chemical Industries, Ltd.), maltitol (Hayashibara Biochemical Laboratories, Inc.), sucralose (San-Ei Gen F.F.I., Inc.) or acesulfame K (Wako Pure Chemical Industries, Ltd.) was used as sweetener and administered orally (10 mL/kg) at 6 g/kg, 3 g/kg or 1 g/kg.
# In addition, (2S)-2-cyano-1-[trans-4-(dimethylaminocarbonyl)cyclohexylamino]acetylpyrrolidine benzenesulfonate (hereafter referred to as Compound A′) as DPP4 inhibitor (or purified water as a control) was used at 10 mg/kg and administered orally (10 mL/kg).
# Blood active GLP-1 level-increasing action was tested for the cases of combined use of DPP4 inhibitor and each type of sweetener in accordance with the method described in (1) above (n=4 to 5 animals per group).
# Blood active GLP-1 concentrations (1 hour after dosing) in the groups dosed with both each type of sweetener (6 g/kg, 3 g/kg or 1 g/kg) and Compound A′ (10 mg/kg) were represented as relative values with respect to blood active GLP-1 concentrations (1 hour after dosing) in the group dosed with fructooligosaccharide (6 g/kg) and Compound A′.
# [6] = tested on: active GLP-1 in plasma; experiment: GLP-1 secretion-stimulating action of sweetener in DPP4-deficient rats (blood active GLP-1 level-increasing action), Example 1; format: in vivo, rat; details: sweetener alone 3 to 6 g/kg/10 mL orally; DPP4-deficient F344DucrlCrlj rats
# Experimental: Male […] rats (Charles River Laboratories Japan, Inc.) (7 to 10-week-old at time of use) were used for the study animals. […] rats are known to be rats of a strain having a spontaneous DPP4 gene deficiency (Watanabe, et al., Experientia, 1987, 43:400-401). These study animals were used in the test after fasting starting on the night prior to the test and grouping according to body weight. The animals were orally administered (10 mL/kg) a solution of the test sweetener (or purified water as a control) followed by collecting blood samples from the tip of the tail at 0, 30, 60, 180 and 360 minutes after dosing. These samples were then measured for concentrations of active GLP-1 in plasma. Measurement of plasma active GLP-1 concentrations was carried out in the following manner. […] Plasma GLP-1 concentrations were then measured using the Bio-Plex Suspension Array System (Rat Endocrine LINCOplex Kit; available from Linco Research, Inc.) or the Glucagon-like Peptide-1 (Active) ELISA KitTM (available from Linco Research, Inc.; active GLP-1 measurement kit). The measurement results were tested for the presence of a significant difference between groups by comparing the sweetener-loaded group with the control group using Dunnett's multiple comparison test (two-sided test). […] Biological Experimental Data Statistical Analysis System, from Arm Systex Co., Ltd.) was used to analyze the data.
# [7] = sweetener 6 g/kg orally combined with Compound A′ 10 mg/kg orally
smiles,measurement,setting,value
"CN(C)C(=O)[C@H]1CC[C@H](NCC(=O)N2CCC[C@H]2C#N)CC1.Cl (relative stereo) [Compound A, (2S)-2-cyano-1-[trans-4-(dimethylaminocarbonyl)cyclohexylamino]acetylpyrrolidine hydrochloride]",body weight as compared with the control group,[1],no changes in body weight
same,plasma active GLP-1 levels,[2]; Compound A 10 mg/kg orally alone,no increases in plasma active GLP-1 levels observed
O=C[C@H](O)[C@@H](O)[C@@H](O)[C@H](O)CO [D-galactose],blood GLP-1 levels following administration,[3],blood GLP-1 levels are increased
O=C[C@H](O)[C@@H](O)[C@H](O)[C@H](O)CO [D-glucose],blood GLP-1 levels following administration,[3],blood GLP-1 levels are increased
O=C[C@H](O)[C@@H](O)[C@@H](O)CO [L-arabinose],weight gain,[4],inhibited weight gain in mice
"OC[C@@H](O)[C@@H](O[C@H]1O[C@H](CO)[C@@H](O)[C@H](O)[C@H]1O)[C@H](O)[C@@H](O)CO [Maltitol, α-D-glucopyranosyl-(1→4)-D-glucitol]",Plasma active GLP-1 concentration (relative value),[5]; [7],422
same,blood GLP-1 levels following administration,[3],blood GLP-1 levels are increased
"OC[C@@H](O)[C@H](O)[C@@H](O)CO [Xylitol, xylitol]",Plasma active GLP-1 concentration (relative value),[5]; sweetener 3 g/kg orally combined with Compound A′ 10 mg/kg orally,272
same,Plasma active GLP-1 concentration (relative value),[5]; [7],774
same,levels of active GLP-1 in plasma as compared with the control group,[6],remarkably high values
"O=C[C@H](O)[C@@H](O)[C@H](O)CO [Xylose, xylose]",Plasma active GLP-1 concentration (relative value),[5]; [7],597
same,levels of active GLP-1 in plasma in comparison with the control group,"[2]; sweetener 6 g/kg orally combined with Compound A 10 mg/kg orally, fructooligosaccharide: at 30, 60, 180 and 300 minutes",remarkable increases in plasma active GLP-1 levels were observed
same,levels of active GLP-1 in plasma as compared with the control group,[6],remarkably high values
OC[C@H]1O[C@@](CO)(O[C@H]2O[C@H](CO)[C@@H](O)[C@H](O)[C@H]2O)[C@@H](O)[C@@H]1O [sucrose],blood GLP-1 levels following administration,[3],blood GLP-1 levels are increased
